Patent US12280090B2, “Antimicrobial peptides” (priority 2018, dated 2025)
Converted amounts (≈) assume the structure as drawn. Where two headings read alike, the source gives them in different places. Ends that are not written are not given here. Peptide text beside a SMILES is read from it.

Experiments:
[1] = system: Escherichia coli: ATCC 9723H; format: cell-based; details: ATCC 9723
Outline: (§1)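 MIC and MBC were run by broth microdilution adapted from Hancock cationic-AMP and CLSI methods, in Mueller Hinton broth (+5% lysed horse blood for S. pyogenes) at about 5×10^5 CFU/mL. Peptides came from two-fold 10× stocks (2560–5 μg/mL) and were incubated 16-24 h at 37 °C. For MBC, the MIC well and two more-concentrated wells were plated on MHA for 24 h at 37 °C.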

[2] = system: Mycobacterium smegmatis (MC^2155); format: cell-based; details: Mycobacterium (MC^2155)
Outline: as §1

[3] = system: Staphylococcus aureus: ATCC 6538P; format: cell-based; details: ATCC 6538
Outline: as §1

[4] = system: Streptococcus pyogenes: unknown strain, hospital isolate; format: cell-based; details: unknown strain, hospital isolate
Outline: as §1

[5] = system: Escherichia coli—ATCC 25922 “wild type”; format: cell-based
Experimental: (§2) Independent experiments were conducted with four strains of E. coli, including ATCC E. coli (Escherichia coli—ATCC 25922 “wild type”); ESBL E. coli (Escherichia coli—Extended spectrum beta-lactamase); CPO E. coli (KPC) (Escherichia coli—Carbapenemase-producing organism; Klebsiella pneumoniae carbapenemase); and CPO E. coli (NDM) (Escherichia coli—Carbapenemase-producing organism; New-Dehli Metallobetalactamase).
(§3) The ATCC (American Type Culture Collection) strains received from Cedarlane. Multi drug resistant (MDR) strains, as clinical isolates, were received from the laboratory of Dr. Linda Hoang.
(§4) Putative antimicrobial peptides were synthesized by GeneScript. A-list antimicrobial peptides re-synthesized by GeneScript. P2_CCH, P5_CCH, and P5_CCH_A19K were each synthesized under two conditions: standard synthesis using TFA, and the other with TFA-removal using acetate as a counter-ion. A MIC method, adapted for use with cationic antimicrobial peptides, was used to evaluate MIC antimicrobial activity (Hancock 1999).
(§5) The following data are presented to show the activity (MIC/MBC in μg/mL) of certain antimicrobial peptides described herein relative to a modified/synthetic version having a specified substitution. While data presented in tables above may be presented again, or may be represented in data provided in the tables below, such duplication is believed to assist the reader in readily noting comparisons. Different Run Numbers noted in the following tables denotes experiments conducted on different days, with each run reflecting multiple n values.

[6] = system: Escherichia coli—Carbapenemase-producing organism; Klebsiella pneumoniae carbapenemase; format: cell-based
Experimental: as §2, §3, §4, §5

[7] = system: Escherichia coli—Carbapenemase-producing organism; New-Dehli Metallobetalactamase; format: cell-based
Experimental: as §2, §3, §4, §5

[8] = system: Escherichia coli—Extended spectrum beta-lactamase; format: cell-based
Experimental: as §2, §3, §4, §5

[9] = system: Methicillin resistant Staphylococcus aureus; format: cell-based
Experimental: (§6) Independent experiments were conducted with different strains of Staphylococcus aureus—ATCC 29213 “wild type”; and Staphylococcus aureus—Methicillin resistant Staphylococcus aureus.
as §3, §4, §5

[10] = system: Staphylococcus aureus—ATCC 29213 “wild type”; format: cell-based
Experimental: as §6, §3, §4, §5

Salmonella Enteritidis = format: cell-based
From the text: as §4, §5

[11] = system: Salmonella Heidelberg (MDR); format: cell-based
From the text: as §3, §4, §5

Hemolysis test (HC50) = details: red blood cells
Experimental: Peptides were tested for activity using as minimum inhibitory concentration (MIC), and minimum bactericidal concentration (MBC) determinations. For certain peptides, a hemolysis test was also conducted to determine HC50 (μg/mL) as an indicator of hemolytic activity based on the concentration of an antimicrobial compound that kills 50% red blood cells.
In Table 27, the designations P2, P2M, P3, P3M, P4, P4M, P5, P5M, P6, and P6M refer to peptides P2_CCH, P2_CCH_T15K_P7R, P3_CCH, P3_CCH_D8K_Q23C, P4_CCH, P4_CCH_P31K, P5_CCH, P5_CCH_A19K, P6_CCH, and P6_CCH_S12K, respectively, as defined above.

Compound	MIC [1]	MIC [2]	MIC [3]	MIC [4]	Minimum Inhibitory Concentration (MIC) [5]	Minimum Inhibitory Concentration (MIC) [6]	Minimum Inhibitory Concentration (MIC) [7]	Minimum Inhibitory Concentration (MIC) [8]	Minimum Inhibitory Concentration (MIC) ([9]; Methicillin resistant)	Minimum Inhibitory Concentration (MIC) ([10]; ATCC 29213)	Minimum Inhibitory Concentration (MIC) (Salmonella Enteritidis)	Minimum Inhibitory Concentration (MIC) [11]	MBC [1]	MBC [3]	MBC [4]	also measured
CC[C@H](C)[C@H](NC(=O)[C@@H](NC(=O)[C@@H]1CCCN1C(=O)[C@H](Cc1ccccc1)NC(=O)[C@@H](N)Cc1ccccc1)[C@@H](C)CC)C(=O)N[C@@H](C)C(=O)N[C@@H](CCCNC(=N)N)C(=O)N[C@@H](CC(C)C)C(=O)N[C@@H](C)C(=O)N[C@@H](C)C(=O)N[C@@H](CCCCN)C(=O)N[C@H](C(=O)N[C@H](C(=O)N1CCC[C@H]1C(=O)N[C@@H](CO)C(=O)N[C@@H](CC(C)C)C(=O)N[C@H](C(=O)N[C@@H](CS)C(=O)N[C@@H](C)C(=O)N[C@H](C(=O)N[C@H](C(=O)N[C@@H](CCCCN)C(=O)N[C@@H](CCCCN)C(=O)N[C@@H](CS)C(=O)O)[C@@H](C)O)C(C)C)C(C)C)[C@@H](C)CC)C(C)C [Peptide P5_CCH] (H-FFPIIARLAAKVIPSLVCAVTKKC-OH; N-terminus and C-terminus assumed)	16 µg/mL (≈ 6.18 µM)	2 µg/mL (≈ 0.772 µM)	4 µg/mL (≈ 1.54 µM)	128 µg/mL (≈ 49.4 µM)	4 to 16 µg/mL	4 to 16 µg/mL	4 to 32 µg/mL	8 to 32 µg/mL	2 to 8 µg/mL	4 to 8 µg/mL	64 to 128 µg/mL	32 to 128 µg/mL	32 µg/mL (≈ 12.4 µM)	16 µg/mL (≈ 6.18 µM)	128 µg/mL (≈ 49.4 µM)	MBC [2]: >256 µg/mL
CC[C@H](C)[C@H](NC(=O)[C@@H](NC(=O)[C@@H]1CCCN1C(=O)[C@H](Cc1ccccc1)NC(=O)[C@@H](N)Cc1ccccc1)[C@@H](C)CC)C(=O)N[C@@H](C)C(=O)N[C@@H](CCCNC(=N)N)C(=O)N[C@@H](CC(C)C)C(=O)N[C@@H](C)C(=O)N[C@@H](C)C(=O)N[C@@H](CCCCN)C(=O)N[C@H](C(=O)N[C@H](C(=O)N1CCC[C@H]1C(=O)N[C@@H](CO)C(=O)N[C@@H](CC(C)C)C(=O)N[C@H](C(=O)N[C@@H](CS)C(=O)N[C@@H](CCCCN)C(=O)N[C@H](C(=O)N[C@H](C(=O)N[C@@H](CCCCN)C(=O)N[C@@H](CCCCN)C(=O)N[C@@H](CS)C(=O)O)[C@@H](C)O)C(C)C)C(C)C)[C@@H](C)CC)C(C)C [Peptide P5_CCH_A19K] (H-FFPIIARLAAKVIPSLVCKVTKKC-OH; N-terminus and C-terminus assumed)	–	–	–	–	4 to 16 µg/mL	4 to 16 µg/mL	4 to 16 µg/mL	4 to 16 µg/mL	2 to 8 µg/mL	2 to 8 µg/mL	16 to 64 µg/mL	16 to 64 µg/mL	–	–	–	HC50 (Hemolysis test (HC50); RPMI): 64 to 128 µg/mL
FFPRVLRLANKFLPKIYCALPKSVGN [P2_CCH_T15K_P7R]	–	–	–	–	4 to 8 µg/mL	8 µg/mL	4 to 8 µg/mL	2 to 8 µg/mL	32 to 64 µg/mL	64 to 128 µg/mL	32 to 64 µg/mL	16 to 64 µg/mL	–	–	–	MBC [6]: 8 µg/mL; MIC [6]: 8 µg/mL; HC50 (Hemolysis test (HC50); HC50 (hemolysis test)): 64 µg/mL

Now from value to compound, other results behind:

MIC [1]	MIC [2]	MIC [3]	MIC [4]	Minimum Inhibitory Concentration (MIC) [5]	Minimum Inhibitory Concentration (MIC) [6]	Minimum Inhibitory Concentration (MIC) [7]	Minimum Inhibitory Concentration (MIC) [8]	Minimum Inhibitory Concentration (MIC) ([9]; Methicillin resistant)	Minimum Inhibitory Concentration (MIC) ([10]; ATCC 29213)	Minimum Inhibitory Concentration (MIC) (Salmonella Enteritidis)	Minimum Inhibitory Concentration (MIC) [11]	Compound	MBC [1]	MBC [3]	MBC [4]	also measured
16 to 64 µg/mL	2 µg/mL (≈ 0.612 µM)	128 to 256 µg/mL	128 µg/mL (≈ 39.1 µM)	8 to 16 µg/mL	8 µg/mL	16 to 32 µg/mL	8 to 16 µg/mL	–	–	64 to 128 µg/mL	64 µg/mL	CC[C@H](C)[C@H](NC(=O)[C@H](CO)NC(=O)[C@H](CCCCN)NC(=O)CNC(=O)[C@@H](NC(=O)[C@@H](NC(=O)[C@H](CCCCN)NC(=O)[C@@H](NC(=O)[C@@H](NC(=O)[C@H](CCC(=O)O)NC(=O)[C@H](Cc1c[nH]c2ccccc12)NC(=O)[C@H](CC(C)C)NC(=O)CN)[C@@H](C)O)[C@@H](C)CC)[C@@H](C)O)[C@@H](C)O)C(=O)N[C@@H](C)C(=O)N[C@@H](CC(C)C)C(=O)N[C@@H](CC(N)=O)C(=O)N[C@@H](CC(C)C)C(=O)N[C@@H](CC(C)C)C(=O)N[C@@H](CC(=O)O)C(=O)N[C@@H](CCCCN)C(=O)N[C@H](C(=O)N[C@@H](CCCCN)C(=O)N[C@@H](CS)C(=O)N[C@@H](CCCCN)C(=O)N[C@H](C(=O)N[C@@H](C)C(=O)NCC(=O)NCC(=O)N[C@@H](CS)C(=O)N1CCC[C@H]1C(=O)N1CCC[C@H]1C(=O)O)[C@@H](C)CC)[C@@H](C)CC [Peptide P6_CCH] (H-GLWETIKTTGKSIALNLLDKIKCKIAGGCPP-OH; N-terminus and C-terminus assumed)	16 to 64 µg/mL	256 µg/mL (≈ 78.3 µM)	128 µg/mL (≈ 39.1 µM)	Minimum Inhibitory Concentration (MIC) ([9]; MRSA, Gram positive): 128+ ug/mL; MBC ([9]; Methicillin resistant): 256 µg/mL (≈ 78.3 µM); Minimum Inhibitory Concentration (MIC) ([10]; S. aureus ATCC 29213, Gram positive): 128+ ug/mL
–	–	–	–	2 to 4 µg/mL	4 to 8 µg/mL	4 to 8 µg/mL	4 to 8 µg/mL	64 to 128 µg/mL	64 to 128 µg/mL	16 to 32 µg/mL	16 to 32 µg/mL	CC[C@H](C)[C@H](NC(=O)[C@H](Cc1ccccc1)NC(=O)[C@@H]1CCCN1C(=O)[C@H](CC(C)C)NC(=O)[C@@H](N)Cc1ccccc1)C(=O)N[C@@H](C)C(=O)N[C@@H](CCCNC(=N)N)C(=O)N[C@@H](CC(C)C)C(=O)N[C@@H](C)C(=O)N[C@@H](C)C(=O)N[C@@H](CCCCN)C(=O)N[C@H](C(=O)N[C@@H](Cc1ccccc1)C(=O)N1CCC[C@H]1C(=O)N[C@@H](CO)C(=O)N[C@H](C(=O)N[C@H](C(=O)N[C@@H](CS)C(=O)N[C@@H](CO)C(=O)N[C@H](C(=O)N[C@H](C(=O)N[C@@H](CCCCN)C(=O)N[C@@H](CCCCN)C(=O)N[C@@H](CS)C(=O)O)[C@@H](C)O)C(C)C)[C@@H](C)CC)[C@@H](C)CC)C(C)C [Ran-4] (H-FLPFIARLAAKVFPSIICSVTKKC-OH; N-terminus and C-terminus assumed)	–	–	–	–
